Measurements taken from article PMC10142558, “In Silico and In Vivo Studies of a Tumor-Penetrating and Interfering Peptide with Antitumoral Effect on Xenograft Models of Breast Cancer” (Pharmaceutics, 2023).
Non-standard residues stand in square brackets, D forms with d. Residues, ends and D or L forms follow the SMILES beside them. Ahx = NCCCCCC(=O)O

Test: Peptide stability in human serum
Format: in vitro ADME
Details: human serum (Gibco), 37 °C, intact peptide by MALDI-TOF MS, triplicate, mean; for remaining at 6 h: 6 h incubation, read-out: percentage of peptide recovered in human serum, 6 h; for remaining at 24 h: 24 h incubation, read-out: percentage of peptide recovered in human serum, 24 h
Experimental: The peptide TT1-IP was incubated at 37 °C in […] of human serum (Gibco, Illikirch, France) for different periods of time. Samples were collected and peptide degradation stopped by freezing at −20 °C. The peptide was extracted from samples using the Proteo Miner Protein Enrichment System (Bio-Rad, Marnes-la-Coquette, France). The percentage of intact peptide was estimated by mass spectrometry (MS) using MALDI-TOFF with the protocol previously described (Bruker Autoflex II, Palaiseau, France) according to the manufacturer’s instructions. Measurements were performed in triplicate. MS data were analysed using the software Cliprot tools, Flex analysis, Bruker.
iRGD-IP and Lin TT1-IP were incubated in human serum at 37 °C for different periods of time. The integrity of the peptide was analyzed by mass spectrometry (MS). Every measurement was performed in triplicate. Each value is represented as the mean ± standard deviation (SD). Similar results were obtained in two independent experiments.

| SMILES | remaining at 3 h (3 h incubation, read-out: percentage of peptide recovered in human serum, 3 h) | remaining at 6 h | remaining at 24 h | remaining at 1 h (1 h incubation, read-out: percentage of peptide recovered in human serum, 1 h) |
| --- | --- | --- | --- | --- |
| CC[C@H](C)[C@H](NC(=O)[C@H](CCCNC(=N)N)NC(=O)[C@H](CCC(=O)O)NC(=O)[C@H](CCCNC(=N)N)NC(=O)[C@H](Cc1ccc(O)cc1)NC(=O)[C@H](CCCNC(=N)N)NC(=O)[C@@H](NC(=O)[C@H](CCCCN)NC(=O)[C@H](CC(C)C)NC(=O)[C@H](C)NC(=O)[C@@H](NC(=O)[C@H](CC(C)C)NC(=O)[C@H](CC(C)C)NC(=O)[C@@H](NC(=O)[C@@H](NC(=O)[C@@H](NC(=O)[C@@H](N)CCC(=O)O)[C@@H](C)O)C(C)C)[C@@H](C)O)C(C)C)C(C)C)C(=O)N[C@H](C(=O)NCCCCCC(=O)N[C@@H](C)C(=O)N[C@@H](CCCCN)C(=O)N[C@@H](CCCNC(=N)N)C(=O)NCC(=O)N[C@@H](C)C(=O)N[C@@H](CCCNC(=N)N)C(=O)N[C@@H](CO)C(=O)N[C@H](C(=O)N[C@@H](C)C(N)=O)[C@@H](C)O)[C@@H](C)O [Lin TT1-IP] (H-ETVTLLVALKVRYRERIT[Ahx]AKRGARSTA-NH2) | ~80% | 44% | ~30% | – |
| CC[C@H](C)[C@H](NC(=O)[C@H](CCCNC(=N)N)NC(=O)[C@H](CCC(=O)O)NC(=O)[C@H](CCCNC(=N)N)NC(=O)[C@H](Cc1ccc(O)cc1)NC(=O)[C@H](CCCNC(=N)N)NC(=O)[C@@H](NC(=O)[C@H](CCCCN)NC(=O)[C@H](CC(C)C)NC(=O)[C@H](C)NC(=O)[C@@H](NC(=O)[C@H](CC(C)C)NC(=O)[C@H](CC(C)C)NC(=O)[C@@H](NC(=O)[C@@H](NC(=O)[C@@H](NC(=O)[C@@H](N)CCC(=O)O)[C@@H](C)O)C(C)C)[C@@H](C)O)C(C)C)C(C)C)C(=O)N[C@H](C(=O)NCCCCCC(=O)N[C@H]1CSSC[C@@H](C(N)=O)NC(=O)[C@H](CC(=O)O)NC(=O)[C@@H]2CCCN2C(=O)CNC(=O)[C@H](CCCCN)NC(=O)[C@H](CC(=O)O)NC(=O)CNC(=O)[C@H](CCCNC(=N)N)NC1=O)[C@@H](C)O [iRGD-IP] | – | 77% | 62% | 91% |
